Source: article PMC3158247 (Journal of medicinal chemistry, 2011)

Legend:
[1] = system: HBV-transgenic mice (strain 1.3.32); assay type: in vivo; conditions: oral gavage once daily for 14 days
HepG2.2.15 cell line = conditions: MTT assay

Compound	alanine transaminase (ALT) and bilirubin [1]	other serum chemistry changes [1]	total sodium [1]	deaths as a result of compound exposure ([1]; 25 and 7.9 mg/kg)	weight loss, morphological or behavioral changes ([1]; 25 and 7.9 mg/kg)	tolerability (CL57BL/6 mice; CL57BL/6 (normal) mice)	platelets, neutrophils, lymphocytes (trend) (CL57BL/6 mice; single intravenous bolus 25 mg/kg, 24 hours)	serum chemistry (CL57BL/6 mice; single intravenous bolus, […] 1a and 7.9 mg/kg 3c respectively, 24 hours)	No cytotoxicity observed up to the highest concentration tested (HepG2.2.15 cell line) [µM]
Fc1cccc(Cl)c1C1CC(c2ccc(Cl)cc2)Nc2ncnn21 (racemic) [Compound 1a, 7-(2-Chloro-6-fluorophenyl)-5-(4-chlorophenyl)-4,5,6,7-tetrahydro-[1,2,4]triazolo[1,5-a]pyrimidine]	elevated levels of alanine transaminase (ALT) and bilirubin in a minority of treated animals	did not result in any other obvious and significant dose-dependent serum chemistry changes	slight rise in total sodium	No animals were observed to have died as a result of compound exposure	No weight loss, morphological or behavioral changes were noted	well-tolerated	trend towards reduction of platelets and neutrophils, and also an increase in lymphocytes	unaffected	> 50
Fc1cccc(Cl)c1C1CC(c2ccc(Cl)cc2)Nc2ncnn21 (single isomer, unassigned) [enantiomer 1 of 1a]	–	–	–	–	–	–	–	–	> 50
Fc1cccc(F)c1C1C=C(c2ccc(Cl)cc2)Nc2ncnn21 (centres unmarked) [Compound 3c, 5-(4-Chlorophenyl)-7-(2,6-difluorophenyl)-4,7-dihydro-[1,2,4]triazolo[1,5-a]pyrimidine]	–	–	–	No animals were observed to have died as a result of compound exposure	–	–	–	–	–
